Data on 3 compounds can be found in publication PMC6534253, “Stereoselective pharmacokinetic and pharmacodynamic analysis of a CNS-active sulphamoylphenyl carbamate derivative” (Journal of Enzyme Inhibition and Medicinal Chemistry, 2019).

For one data set, the target named is hCA VII (Homo sapiens, UniProt P43166). Briefly: Stopped flow CO2 hydrase assay, hCA VII. In kind it is biochemical. Particulars: mean from three assays, stopped flow technique. As for the experimental part:
(§1) The CA inhibition of MSPC and its individual enantiomers were assessed by a stopped flow CO2 hydrase assay as previously described.

Another data set concerns the target hCA IV (Homo sapiens, UniProt P22748). Briefly: Stopped flow CO2 hydrase assay, hCA IV. The note with it: mean from three assays, stopped flow technique. The format is biochemical. As for the experimental part:
as §1

In data set [1] the test system is maximal electroshock seizure (MES). Briefly: Rat maximal electroshock (MES) anticonvulsant test. The format is in vivo. The text has this:
The experiments at the MES model were done in male Sprague-Dawley rats (8 rats per dose) weighing 100−120 g (Charles River Laboratories, Wilmington, MA) as previously described.

For the next data set, the target named is hCA I (Homo sapiens, UniProt P00915). Put plainly: Stopped flow CO2 hydrase assay, hCA I. Particulars: for Ki: mean from three assays, stopped flow technique. In kind it is biochemical. The protocol:
as §1

A short description of data set [2]: Pharmacokinetics from plasma levels after i.p. administration to rats. Particulars: for Vd/F: read-out: Vss/F. The format is in vivo, rat. The protocol:
(§2) The pharmacokinetics (PK) of racemic-MSPC and its two individual enantiomers were studied following i.p. (80 mg/kg) to rats and their major PK parameters were estimated.
(§3) The study details were as described previously[8] and plasma and brain levels of racemic-MSPC and it individual enantiomers were monitored at: 20, 40, 60, 90, 120, 160, 180, 200, 220, 260, 320, and 360 min after dosing.
(§4) Plasma and brain concentrations of each compound were quantified by an HPLC assay. The HPLC analysis was performed on a system (2695 Separation Module; Waters, Milford, MA) with a photodiode array UV detector (2996 PDA Detector; Waters, Milford, MA). Conditioned as follows: Kinetex, 5 u EVO C18 100 A, 150*4.6 mm column (Phenomenex®, Torrance, CA). Linear gradients (5–95% acetonitrile content) with H2O (0.1% formic acid) and acetonitrile were used as the eluents with flow rate of 1 ml/min at 20 °C. The compounds and the internal standard were detected at 250 nm. Plasma and brain concentrations of MSPC and its two individual enantiomers were quantified by assay that its extraction method was previously described.
(§5) The PK parameters of each compound were calculated by non-compartmental analysis based on statistical moment theory using the PK software Phoenix Winnonlin Tripos L.P. (Pharsight Co., Mountain View, CA) as previously described. MSPC amount excreted unchanged in the urine was calculated by multiplying its urine concertino by the excreted urine volume for up to 6 h after dosing.

Data set [3] in a line: Pharmacokinetics from brain levels after i.p. administration to rats. The format is in vivo, rat. The note with it: for AUCbrain: as used in the BPR calculation; for Vd/F: read-out: Vss/F. As for the experimental part: as §2, §3, §4, §5
The target in a further data set is hCA II (Homo sapiens, UniProt P00918). Put plainly: Stopped flow CO2 hydrase assay, hCA II. The format is biochemical. Particulars: for Ki: mean from three assays, stopped flow technique. The protocol: as §1
The next data set can be described thus: Water solubility. The format is physicochemical.
Data set [4] deals with maximal electroshock seizure (MES). Details: method as in PMID 28275953. The note with it: cited from earlier work.
A short description of data set [5]: Amount excreted unchanged in urine. The format is in vivo, rat. The note with it: urine up to 6 h after dosing. As for the experimental part:
MSPC urine concentrations were quantified by the same HPLC assay as its plasma assay.
as §5

The mark [6] stands for this setting: plasma, i.p. 80 mg/kg, mean, listed as (R)-enantiomer, 80 mg/kg.
Setting [7] is: brain, rats, i.p. 80 mg/kg, mean, listed as (R)-enantiomer, 80 mg/kg.
The mark [8] stands for this setting: rat, plasma, ip, 80 mg/kg, as used in the BPR calculation, i.p. 80 mg/kg, read-out: AUCplasma.
Where [9] appears, read: rat, plasma, ip, 80 mg/kg, plasma, i.p. 80 mg/kg, mean, read-out: AUC.
The mark [10] stands for this setting: brain, rats, i.p. 80 mg/kg, mean, listed as (S)-enantiomer, 80 mg/kg.
Where [11] appears, read: rat, ip, plasma, i.p. 80 mg/kg, mean.
[12] abbreviates: rat, ip, brain, rats, i.p. 80 mg/kg, mean.

hCA VII, sequence (P43166 whole entry): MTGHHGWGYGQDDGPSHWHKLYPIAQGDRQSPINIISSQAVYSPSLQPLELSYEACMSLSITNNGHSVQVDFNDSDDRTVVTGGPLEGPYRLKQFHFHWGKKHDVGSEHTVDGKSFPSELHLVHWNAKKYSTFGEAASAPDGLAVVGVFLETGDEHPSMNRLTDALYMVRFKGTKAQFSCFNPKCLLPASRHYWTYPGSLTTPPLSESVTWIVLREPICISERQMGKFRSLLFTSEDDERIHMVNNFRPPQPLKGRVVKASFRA
hCA IV, sequence (P22748 19-312): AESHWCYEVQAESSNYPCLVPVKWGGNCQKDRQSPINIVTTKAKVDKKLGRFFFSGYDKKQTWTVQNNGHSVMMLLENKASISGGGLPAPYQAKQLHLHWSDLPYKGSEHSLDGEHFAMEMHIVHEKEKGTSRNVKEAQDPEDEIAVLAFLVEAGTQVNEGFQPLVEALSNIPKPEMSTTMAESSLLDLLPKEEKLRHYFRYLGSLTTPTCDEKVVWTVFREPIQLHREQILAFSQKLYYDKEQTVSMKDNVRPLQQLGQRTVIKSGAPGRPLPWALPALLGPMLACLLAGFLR
hCA I, sequence (P00915 whole entry): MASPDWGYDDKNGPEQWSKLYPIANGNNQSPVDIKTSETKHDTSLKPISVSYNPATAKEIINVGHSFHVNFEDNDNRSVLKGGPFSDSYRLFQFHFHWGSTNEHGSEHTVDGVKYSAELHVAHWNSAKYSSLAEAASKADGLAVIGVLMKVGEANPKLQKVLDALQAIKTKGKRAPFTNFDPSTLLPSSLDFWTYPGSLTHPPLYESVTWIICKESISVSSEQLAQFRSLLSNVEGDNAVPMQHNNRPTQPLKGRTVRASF

At hCA VII, `CC[C@@H](C)CCOC(=O)Nc1ccc(S(N)(=O)=O)cc1` [(R)-MSPC, 3-methylpentyl(4-sulphamoylphenyl)carbamate] showed a Ki of 170 nM. The compound also showed an inhibitory constant (Ki) at hCA IV of 810 nM. Further, in data set [1], the “rat-MES (po)-ED50” value turned out to be 30 mg/kg. This compound also came in with an inhibition constant (Ki) at hCA I of 34.1 nM. Also, the “times more effective inhibitor than (S)-MSPC against hCA I” value at hCA I (ratio of Ki versus (S)-MSPC) is 3.8. In data set [2] (compared to (S)-MSPC and racemic-MSPC), this compound came in with a higher clearance of 29%. For the same compound, the “plasma exposure compared to (S)-MSPC” value in data set [2] (i.p. 80 mg/kg) is reported as 78%. In data set [2] (setting [6]), the AUC was determined as 23 mg/L/h, the CL/F turned out to be 15 mL/min/kg, the Cmax was determined as 10000 ng/mL and the Tmax is recorded as 1.0 h. For the same compound, in data set [2] (setting [6]), the Vss/F is 3.2 l/kg^−1 and the t1/2 is 2.5 h. Moreover, in [3] (AUCbrain/AUCplasma, rats, i.p. 80 mg/kg, listed as (R)-enantiomer, 80 mg/kg), the “brain-to-plasma-(AUC)-ratio (BPR)” value was 2.07. In [3] (setting [7]), the AUC was 47 mg/L/h, the CL/F was 6.7 mL/min/kg, the Cmax was determined as 16000 ng/mL and the Tmax is on record as 1.0 h. Besides, in [3] (setting [7]), the Vss/F is recorded as 1.4 l/kg^−1 and the t1/2 is 2.3 h. Also, in data set [3] (versus (S)-MSPC), the “times higher BPR than its enantiomer” value was found to be 2.6. The Ki at hCA II came out at 3.3 nM. Besides, the “times more effective inhibitor than (S)-MSPC against hCA II” value on hCA II (ratio of Ki versus (S)-MSPC) is given as 6.1.

In the case of `CC[C@H](C)CCOC(=O)Nc1ccc(S(N)(=O)=O)cc1` [(S)-MSPC, 3-methylpentyl(4-sulphamoylphenyl)carbamate], the Ki at hCA VII amounted to 744 nM; at hCA IV it was 593 nM; at hCA I it was 130 nM; on hCA II it was 20.3 nM. In data set [1] (Rattus norvegicus, po), this compound displayed an ED50 of 24 mg/kg. Also, the AUC was 29000 ng·h/mL in data set [2] (setting [8]), 29000 ng·h/mL in data set [2] (setting [9]) and 23 mg/L/h in data set [3] (setting [10]). Moreover, the half-life in data set [2] (rat, plasma, ip, 80 mg/kg, i.p. 80 mg/kg, mean) is 2.3 h; in [3] (rat, brain, ip, 80 mg/kg, rats, i.p. 80 mg/kg, mean), 1.7 h. Besides, the CL/F in data set [2] (rat, plasma, ip, 80 mg/kg, plasma, i.p. 80 mg/kg, mean, read-out: CL/F (converted)) is 11.7 mL/min/kg; in data set [3] (setting [10]), 15 mL/min/kg. The Cmax in [2] (rat, plasma, ip, 80 mg/kg, plasma, i.p. 80 mg/kg, mean, read-out: Cmax) came to 7600 ng/mL; in [3] (setting [10]) it was 7000 ng/mL. Besides, the Vd/F in [2] (rat, plasma, ip, 80 mg/kg, plasma, i.p. 80 mg/kg, mean) came out at 2.3 L/kg; in data set [3] (rat, brain, ip, 80 mg/kg, brain, rats, i.p. 80 mg/kg, mean), 2.2 L/kg. The Tmax in [2] (rat, plasma, ip, 80 mg/kg, plasma, i.p. 80 mg/kg, mean, read-out: tmax) was found to be 1.3 h; in data set [3] (rat, brain, ip, 80 mg/kg, brain, rats, i.p. 80 mg/kg, mean, read-out: tmax) it was 0.6 h. Besides, the “brain-to-plasma-(AUC)-ratio (BPR)” value in [3] (AUCbrain/AUCplasma, rats, i.p. 80 mg/kg, listed as (S)-enantiomer, 80 mg/kg) is recorded as 0.79. Further, in data set [3] (rats, i.p. 80 mg/kg, listed as (S)−enantiomer, 80 mg/kg), the AUCbrain is reported as 22.8.

Turning to `CCC(C)CCOC(=O)Nc1ccc(S(N)(=O)=O)cc1` (racemic) [MSPC (racemate), 3-Methylpentyl(4-sulphamoylphenyl)carbamate], the water solubility entry in the data set “Water solubility” is recorded as “low water solubility”. In data set [4] (i.p.), the “rat-MES-ED50 (i.p.)” value is on record as 13 mg/kg. For the same compound, the “rat-MES-ED50 (po)” value in data set [4] (po) is 28 mg/kg. Further, the Ki on hCA VII was 351 nM; at hCA IV, 750 nM; on hCA I it was 77 nM; at hCA II, 7.6 nM. The “dose excreted unchanged in urine” value in [5] is “Less than 0.1%”. Further, the half-life is 2.1 h in data set [2] (setting [11]) and 1.9 h in [3] (setting [12]). Further, the CL/F in data set [2] (rat, ip, plasma, i.p. 80 mg/kg, mean, read-out: CL/F (converted)) was 11.7 mL/min/kg; in data set [3] (rat, ip, brain, rats, i.p. 80 mg/kg, mean, read-out: CL/F (converted)) it was 6.67 mL/min/kg. In addition, the Cmax in data set [2] (rat, ip, plasma, i.p. 80 mg/kg, mean, read-out: Cmax) came to 10000 ng/mL; in data set [3] (rat, ip, brain, rats, i.p. 80 mg/kg, mean, read-out: Cmax) it was 18000 ng/mL. For the same compound, the Vd/F was 2.2 L/kg in data set [2] (setting [11]) and 1 L/kg in data set [3] (setting [12]). Further, the Tmax in data set [2] (rat, ip, plasma, i.p. 80 mg/kg, mean, read-out: tmax) was 1.3 h; in data set [3] (rat, ip, brain, rats, i.p. 80 mg/kg, mean, read-out: tmax), 1.6 h. The AUC in [2] (setting [8]) is 28500 ng·h/mL; in [2] (setting [9]), 29000 ng·h/mL; in [3] (rat, ip, brain, rats, i.p. 80 mg/kg, mean, read-out: AUC), 53000 ng·h/mL. Further, the AUCbrain in data set [3] (rats, i.p. 80 mg/kg) is 52.8. Also, the Kp in data set [3] (rat, brain, ip, AUCbrain/AUCplasma, rats, i.p. 80 mg/kg, read-out: brain-to-plasma-(AUC)-ratio (BPR)) stood at 1.85.
